# Entries after “also recorded” stand apart in the source; their conditions may differ.
# Key:
# [1] = tested on: Reticulitermes tibialis; assay: T-tube choice-test behavioral bioassay with CO2; format: in vivo
# Protocol: Behavioral bioassay apparatus: The choice-test bioassay apparatus was constructed from a glass T-tube (5 mm inside diameter, 5 mm stem, with each branch 4.5 cm long). Each branch of the ‘T’ was bent downward (2.5 cm from the junction of the ‘T’) at a 45° angle to form a pitfall trap. A 5 mm NMR cap (cat. no. 100-0050, Drummond Scientific, Broomall, Pa.) with a 1 mm pinhole in it was firmly pushed over the end of each bent branch. A 25 cm length of Teflon tubing (0.8 mm inside diameter) was inserted 3 mm into the hole in each NMR cap and the other end of the tubing was connected to a 35 ml polyethylene syringe (cat. no. 106-0490, Sherwood Medical, St. Louis, Mo.). The two 35-ml syringes were connected to a syringe pump which was adjusted to provide an airflow of 1 ml per min into each choice arm of the bioassay apparatus.
# Mixtures of CO2 and ambient air were tested to determine the termite response to a range of CO2 concentrations. […] The CO2 concentration of the syringes was determined by using GC-MS-SIM analysis (see below) before each bioassay. […]
# Procedure: For bioassays, termite workers were collected from plastic tubs by using a camel's hair brush and were placed into a holding container constructed from a 3 cm length of Teflon tubing (8 mm inside diameter). […] Bioassays were conducted for 15 min, after which the number of termites in each pitfall was recorded. […]
# [2] = tested on: western corn root worm larvae; assay: Glass bead Y-tube choice test, corn volatiles versus CO2 (Example 19); parameters: species or system Diabrotica virgifera virgifera LeConte; conditions: in vivo
# Protocol: Bioassay Procedure. All bioassays were choice tests conducted using a vertical glass “Y” tube apparatus filled with 3-mm glass beads (Bernklau and Bjostad 1998) (FIG. 62). Volatile compounds were prepared in 35-ml polyethylene syringes (cat no. 106-0490, Sherwood Medical, St. Louis, Mo.) and a syringe pump (Sage Model 355, Fisher Scientific, Pittsburgh, Pa.) was used to provide, slow (1 ml per min) consistent delivery of the compounds into each choice arm of the bioassay apparatus. Twenty newly-hatched larvae (less than 12-hours-old) were used for each bioassay. Non-diapausing larvae were used for all experiments unless otherwise indicated below. For each choice test a minimum of 10 replicates were conducted.
# Corn Headspace Versus CO2. Using the glass bead bioassay (Bernklau and Bjostad 1998) the headspace over germinating corn seeds was tested in a choice test against a series of CO2 concentrations to determine if corn volatiles (including CO2) were more attractive to the larvae than CO2 alone. A 35-ml syringe was filled with the headspace over 3-day-old germinating corn seedlings by means of a 25-cm length of slender Teflon tubing inserted into a hole drilled into the cover of the tub containing the corn seedlings.
# Three different concentrations of CO2 were tested on the control side of the choice test. In the 1 st test, we used ambient room air on the control side, which contains a lower concentration of CO2 than the corn headspace (approximately 1.0 mmol/mol). In the 2nd test, we used GC-MS-SIM to match the CO2 concentration in the syringe on the control side to be equal to that measured in the syringe containing corn headspace. In the 3rd test, the syringe on the control side of the choice test contained a CO2 concentration twice that measured in the corn headspace. To prepare each of these control concentrations, a 2nd 35-ml polyethylene syringe was partially filled (approximately 5 ml) from a tank containing pure (100%) CO2 using a glass syringe. Headspace from a plastic tub containing only moist germination paper was drawn into the syringe to fill it, mixing the air and CO2 thoroughly at the same time. The gas mixtures in the polyethylene syringes were allowed to equilibrate for 15 minutes, and GC-MS-SIM was used to verify the CO2 concentrations in both syringes prior to each bioassay.
# Corn Headspace Versus CO2 with Diapausing Larvae. The larvae used in our studies were from a colony of nondiapausing western corn root worm that has been maintained in our laboratory since 1986. We wished to determine if diapausing western corn root worm larvae would respond differently to corn volatiles than the colony larvae. Using the same method described above, the headspace over germinating corn seeds was tested in a choice test against a series of CO2 concentrations with western corn root worm larvae from a diapausing strain.
# Corn Headspace-Coated Glass Beads versus CO2. In the previous experiments, corn volatiles were introduced into the bottom of the Y-tube and carried through the glass beads by the airstream from the syringe pump. We also tested the possibility that some volatile compounds may have been removed from the airstream by coating out on the glass beads on the bottom of the Y-tube where they would not be available for the larvae to detect at the choice point near the middle of the Y-tube. […]
# [3] = tested on: wireworm larvae; conditions: in vivo; cited from earlier work
compound,measurement,setting,value
"O=C=O [CO2, carbon dioxide]","termite choice, CO2 side versus ambient air control side","[1]; 5 mmol/mol CO2 versus ambient air, 15 min",significantly greater than the number that moved to the control side; also recorded: chose the mmol/mol CO2 side significantly more often; also recorded: Significantly more termites (p<0.05) were attracted to the side containing 5 mmol/mol CO2 than to the control side
same,CO2 concentration of best attraction,[1]; in vivo,5 mmol per mol
same,role in attraction of larvae to corn roots (conclusion),[2],the only attractive volatile compound that attracts western corn root worm larvae to corn roots
same,smallest CO2 difference responded to,[3],0.02%
